Assay [1] addresses T1, Kir6.2-GFP + SUR1 (Homo sapiens, UniProt Q14654). Nature of the assay: Current inhibition in excised inside-out patches. The format is biochemical. Also on record: ANAP labelling is specific and only full-length Kir6.2 is expressed at the cell membrane; expressed in transfected cells; host or cells: HEK-293T. As to conditions: Mg2+-free, Hill fit. The procedure: (§1) Currents were measured from patches from cells expressing KATP that were excised in the absence of Mg^2+. Under such conditions, nucleotides can bind to both sites on SUR1, but no activation occurs, allowing inhibitory currents to be measured in isolation ([Gribble et al., 1998]; [Ueda et al., 1999]; [Puljung et al., 2019]).

Assay [2] has as its target Kir6.2*,C166S-GFP + SUR1 (Homo sapiens, UniProt Q14654, C166S). In words: FRET (ANAP quenching) nucleotide binding in unroofed membranes. Conditions: Hill fit. The arrangement: ANAP labelling is specific and only full-length Kir6.2 is expressed at the cell membrane; expressed in transfected cells; host or cells: HEK-293T. The text has this:
To measure nucleotide binding, cells transfected with Kir6.2*-GFP + SUR1 were briefly sonicated, leaving behind unroofed plasma membrane fragments ([Heuser, 2000]; [Zagotta et al., 2016]; [Puljung et al., 2019]) containing ANAP-labelled KATP channels with the intracellular nucleotide-binding sites exposed to the bath solution. The sample was excited with a 385 nm LED and emitted fluorescence from the membrane fragments was passed through a spectrometer, allowing us to separate ANAP, GFP, and TNP-ATP fluorescence by peak wavelength (Figure 1E,F). As expected from FRET, increasing the concentration of TNP-ATP caused a decrement in the ANAP peak at 472 nm and a concomitant increase in the TNP-ATP peak at 561 nm (Figure 1F). We used the quenching of the ANAP peak as a direct measure of TNP-ATP binding as this signal was specific to KATP. In contrast, the peak TNP-ATP fluorescence may include contributions from both specific and non-specific nucleotide binding, as well as direct excitation of TNP-ATP in solution by the 385 nm excitation light. Due to the sharp cut-off of the GFP emission spectrum at shorter wavelengths, our measurements of peak ANAP fluorescence were unaffected by the presence of the GFP tag on Kir6.2.
Epifluorescence imaging and spectroscopy were performed using a Nikon Eclipse TE2000-U microscope with a 60x water immersion objective (Plan Apo VC, NA = 1.2, Nikon; Kingston upon Thames, UK) or a 100x oil immersion objective (Nikon, Apo TIRF, NA = 1.49). […] Fluorescence spectra were collected by exciting ANAP as above but using a 400 nm long-pass emission filter (ThorLabs), then passing emitted light through an IsoPlane 160 Spectrometer (Princeton Instruments; Trenton, NJ) with a 300 grooves mm^-1 grating. […]
Unroofed membranes were prepared as described previously ([Heuser, 2000]; [Zagotta et al., 2016]; [Puljung et al., 2019]). […] Unroofed membrane fragments were nearly invisible in bright-field images and identified by their GFP and ANAP fluorescence. […]
Fluorescence spectra were collected as described above. […]

In assay [3] the target is T2, Kir6.2-GFP (no SUR1) (Homo sapiens, UniProt Q14654).
T2 construct: ANAP labelling is specific and only full-length Kir6.2 is expressed at the cell membrane; expressed in transfected cells; host or cells: HEK-293T
T2 sequence (Q14654 1-390): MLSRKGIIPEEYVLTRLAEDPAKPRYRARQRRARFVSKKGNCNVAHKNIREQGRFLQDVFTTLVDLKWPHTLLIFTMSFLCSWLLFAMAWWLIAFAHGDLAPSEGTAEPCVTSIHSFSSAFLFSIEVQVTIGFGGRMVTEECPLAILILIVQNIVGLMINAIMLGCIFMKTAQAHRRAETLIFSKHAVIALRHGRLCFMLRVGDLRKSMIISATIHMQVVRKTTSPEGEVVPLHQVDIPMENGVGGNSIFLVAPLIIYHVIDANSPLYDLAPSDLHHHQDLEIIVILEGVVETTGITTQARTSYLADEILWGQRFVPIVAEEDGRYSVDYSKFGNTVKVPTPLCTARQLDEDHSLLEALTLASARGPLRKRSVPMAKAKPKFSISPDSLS
Nature of the assay: Current inhibition in excised inside-out patches. The format is biochemical. As to conditions: excised inside-out patches, no SUR1, Mg2+-free, Hill fit. The method, then:
as §1

The target of assay [4] is T1, Kir6.2-GFP + SUR1. Nature of the assay: Current inhibition in excised inside-out patches (patch-clamp fluorometry). It is filed as biochemical. The arrangement: full length, fully ANAP-labelled Kir6.2 protein was produced and successfully trafficked to the membrane in the presence of SUR1; expressed in transfected cells; host or cells: HEK-293T. As to conditions: excised inside-out patches, Mg2+-free, Hill fit. The method, then:
as §1
Currents were measured as described above.

One compound from article PMC7004565, “Nucleotide inhibition of the pancreatic ATP-sensitive K^+ channel explored with patch-clamp fluorometry” (eLife, 2020) can be followed below.

Several values for one entry are separate records, joined by “and”; a condition that tells them apart may be missing. Equal entries are not always repeated.

T1 sequence (Q09428 whole entry partner, one chain of several): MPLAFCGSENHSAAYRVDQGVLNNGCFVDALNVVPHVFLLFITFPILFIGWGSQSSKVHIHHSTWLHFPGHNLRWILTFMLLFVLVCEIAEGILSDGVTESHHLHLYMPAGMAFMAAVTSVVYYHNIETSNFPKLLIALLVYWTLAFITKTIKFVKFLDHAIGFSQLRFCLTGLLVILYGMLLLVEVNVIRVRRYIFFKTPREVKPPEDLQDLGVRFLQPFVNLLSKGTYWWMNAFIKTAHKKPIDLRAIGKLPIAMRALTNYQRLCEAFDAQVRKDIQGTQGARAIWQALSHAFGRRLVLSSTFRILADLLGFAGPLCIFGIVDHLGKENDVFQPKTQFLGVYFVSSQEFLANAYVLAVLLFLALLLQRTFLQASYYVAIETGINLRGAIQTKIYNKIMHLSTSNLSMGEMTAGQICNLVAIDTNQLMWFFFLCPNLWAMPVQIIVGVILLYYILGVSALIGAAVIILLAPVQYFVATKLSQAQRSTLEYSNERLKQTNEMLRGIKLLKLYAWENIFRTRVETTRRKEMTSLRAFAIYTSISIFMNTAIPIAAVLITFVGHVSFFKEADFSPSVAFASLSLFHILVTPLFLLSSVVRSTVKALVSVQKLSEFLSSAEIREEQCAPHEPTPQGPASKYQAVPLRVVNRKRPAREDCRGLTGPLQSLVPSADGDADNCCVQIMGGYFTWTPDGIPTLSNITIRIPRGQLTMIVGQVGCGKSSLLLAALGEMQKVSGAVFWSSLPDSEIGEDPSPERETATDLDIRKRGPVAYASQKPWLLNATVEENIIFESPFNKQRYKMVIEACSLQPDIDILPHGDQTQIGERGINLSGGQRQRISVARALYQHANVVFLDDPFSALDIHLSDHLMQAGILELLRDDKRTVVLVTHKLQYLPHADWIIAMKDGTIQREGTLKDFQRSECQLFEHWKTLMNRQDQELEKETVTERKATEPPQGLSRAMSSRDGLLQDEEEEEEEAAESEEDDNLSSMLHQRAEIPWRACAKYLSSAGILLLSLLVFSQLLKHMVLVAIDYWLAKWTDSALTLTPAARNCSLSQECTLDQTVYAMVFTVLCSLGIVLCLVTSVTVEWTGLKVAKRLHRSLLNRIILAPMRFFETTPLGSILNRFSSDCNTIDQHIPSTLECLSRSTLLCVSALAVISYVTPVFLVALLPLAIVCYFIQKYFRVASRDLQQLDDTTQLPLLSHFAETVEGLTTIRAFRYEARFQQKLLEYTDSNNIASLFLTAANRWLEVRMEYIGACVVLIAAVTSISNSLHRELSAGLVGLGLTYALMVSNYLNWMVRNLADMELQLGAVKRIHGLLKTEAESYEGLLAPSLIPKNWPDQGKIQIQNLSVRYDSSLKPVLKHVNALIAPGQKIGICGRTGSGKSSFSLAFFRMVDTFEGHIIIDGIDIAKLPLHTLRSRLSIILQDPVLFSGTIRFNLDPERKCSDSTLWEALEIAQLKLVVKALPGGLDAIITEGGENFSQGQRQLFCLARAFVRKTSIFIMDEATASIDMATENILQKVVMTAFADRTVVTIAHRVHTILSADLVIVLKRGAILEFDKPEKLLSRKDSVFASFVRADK
Chain of Kir6.2*,C166S-GFP + SUR1 (Q14654 whole entry C166S, the tested form may be a part): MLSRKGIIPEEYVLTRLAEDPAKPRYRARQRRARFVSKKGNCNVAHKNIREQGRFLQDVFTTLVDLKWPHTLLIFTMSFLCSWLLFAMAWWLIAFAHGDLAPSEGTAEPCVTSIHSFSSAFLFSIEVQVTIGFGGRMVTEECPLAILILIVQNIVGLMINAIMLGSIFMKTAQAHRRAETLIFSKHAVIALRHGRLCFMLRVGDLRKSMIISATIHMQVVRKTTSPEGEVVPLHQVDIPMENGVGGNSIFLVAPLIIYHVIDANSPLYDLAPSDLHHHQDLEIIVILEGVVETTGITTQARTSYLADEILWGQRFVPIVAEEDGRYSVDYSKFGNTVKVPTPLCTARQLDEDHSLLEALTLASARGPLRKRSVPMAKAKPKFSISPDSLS
Chain of Kir6.2*,C166S-GFP + SUR1 (Q09428 whole entry partner, the tested form may be a part): as the sequence (Q09428 whole entry partner, one chain of several) above

In the case of `Nc1ncnc2c1ncn2[C@@H]1O[C@H](COP(=O)(O)OP(=O)(O)OP(=O)(O)O)[C@H]2OC3(O[C@H]21)C([N+](=O)[O-])=CC(=[N+]([O-])[O-])C=C3[N+](=O)[O-]` (stereo partly drawn) [TNP-ATP, trinitrophenyl-ATP], the IC50 – broadly, the concentration at which inhibition is half-maximal – in assay [1] (IC50 current inhibition) was 1.2 µM and 1.17 µM; in assay [3] (IC50 current inhibition), 273 µM and 275 µM; in assay [4] (IC50 current inhibition), 6.2 µM and 6.23 µM and 6.17 µM. For the same compound, the “h (Hill coefficient) current inhibition” value in assay [1] is listed as 1.14; in assay [3], 1.09; in assay [4], 0.92. Besides, the “h (Hill coefficient) fluorescence quenching” value in assay [2] came out at 0.92. In assay [2] (fraction, read-out: Emax fluorescence quenching), the Emax (in general, the maximal effect, on the per cent scale that the assay sets) came out at 96%. For the same compound, in assay [2] (n = 12, read-out: EC50 fluorescence quenching), the EC50 (as a rule, the concentration that produces a half-maximal response) was 32 µM and 31.6 µM.
